The results in this text go back to patent US20150342954A1, “2-BENZYL, 3-(PYRIMIDIN-2-YL) SUBSTITUTED PYRAZOLES USEFUL AS SGC STIMULATORS” (IRONWOOD PHARMACEUTICALS, INC., priority 2011, published 2015).

The target of assay [1] is T1, Human soluble guanylate cyclase enzyme (hsGC) (Homo sapiens, UniProt Q02108+Q02153).
T1 construct: purchased Enzo Inc. ALX-201-177
T1 sequence (Q02153 1-619): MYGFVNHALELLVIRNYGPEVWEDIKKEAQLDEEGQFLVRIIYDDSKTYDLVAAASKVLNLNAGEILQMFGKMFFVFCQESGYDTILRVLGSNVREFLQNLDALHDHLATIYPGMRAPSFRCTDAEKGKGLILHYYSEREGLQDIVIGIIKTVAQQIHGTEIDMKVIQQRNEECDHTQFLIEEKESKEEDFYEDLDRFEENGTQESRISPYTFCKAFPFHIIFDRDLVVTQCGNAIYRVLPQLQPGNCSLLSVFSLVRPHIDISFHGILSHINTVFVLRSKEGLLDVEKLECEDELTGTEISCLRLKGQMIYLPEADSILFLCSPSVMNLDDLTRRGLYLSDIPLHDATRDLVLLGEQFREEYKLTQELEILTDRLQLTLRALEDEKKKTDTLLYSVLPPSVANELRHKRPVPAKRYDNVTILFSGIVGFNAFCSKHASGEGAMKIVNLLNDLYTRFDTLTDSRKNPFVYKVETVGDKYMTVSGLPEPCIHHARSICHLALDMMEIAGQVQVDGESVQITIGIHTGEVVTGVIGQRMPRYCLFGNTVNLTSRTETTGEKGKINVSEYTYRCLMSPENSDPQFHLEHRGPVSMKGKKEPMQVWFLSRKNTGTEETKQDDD
T1 sequence (Q02108 1-690): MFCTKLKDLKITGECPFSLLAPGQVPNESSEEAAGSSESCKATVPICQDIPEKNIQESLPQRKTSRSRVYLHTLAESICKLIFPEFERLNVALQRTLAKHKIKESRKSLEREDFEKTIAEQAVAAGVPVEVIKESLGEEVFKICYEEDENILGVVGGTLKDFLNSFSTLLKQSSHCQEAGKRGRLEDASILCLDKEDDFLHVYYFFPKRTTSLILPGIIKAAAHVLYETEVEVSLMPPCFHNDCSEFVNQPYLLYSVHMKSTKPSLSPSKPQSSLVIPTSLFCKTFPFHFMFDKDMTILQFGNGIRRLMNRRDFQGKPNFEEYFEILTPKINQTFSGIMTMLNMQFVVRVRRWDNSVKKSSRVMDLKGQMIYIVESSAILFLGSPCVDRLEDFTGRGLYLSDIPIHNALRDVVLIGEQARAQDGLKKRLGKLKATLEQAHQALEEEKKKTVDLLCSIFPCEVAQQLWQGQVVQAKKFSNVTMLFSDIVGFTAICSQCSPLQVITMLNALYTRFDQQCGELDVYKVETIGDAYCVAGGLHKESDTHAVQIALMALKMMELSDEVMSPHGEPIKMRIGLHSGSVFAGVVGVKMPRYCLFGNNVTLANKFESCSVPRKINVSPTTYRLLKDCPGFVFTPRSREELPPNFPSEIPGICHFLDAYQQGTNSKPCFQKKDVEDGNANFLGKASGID
As to the kind of experiment: Purified human sGC enzyme activity assay (without SNP). The assay is classed as biochemical. The following applies: compound at 30 μM, absence of SNP, fold over DMSO control. The method, boiled down:
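Purified human sGC (5 ng) in 0.1 M Tris pH 8.0, 2 mM DTT, 2 mM MgCl2, 300 μM GTP, 1 mM IBMX, with compound at 10 or 30 μM final, 30 min at 37° C.; methanol-stopped. cGMP quantified against a standard curve; specific activity expressed as fold-change over DMSO control.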

Assay [2] has as its target T1, Human soluble guanylate cyclase enzyme (hsGC). As to the kind of experiment: Purified human sGC enzyme synergy assay in the presence of 1 μM sodium nitroprusside (SNP). The following applies: compound at 30 μM, presence of 1 μM SNP. The assay is classed as biochemical. The method, boiled down: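 Purified hsGC (5 ng) incubated 30 min at 37 °C with compound (10 or 30 μM final) in Tris pH 8.0, 300 μM GTP, 1 mM IBMX, 2 mM MgCl2, with or without 1 μM SNP; stopped with cold methanol. cGMP quantified against standard curve; specific activity expressed as fold-change over DMSO control.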

Assay [3] deals with T2, soluble guanylate cyclase (sGC) (Homo sapiens, UniProt Q02108+Q02153).
T2 construct: endogenously expressing soluble guanylate cyclase (sGC); endogenous in cells; host or cells: HEK293
T2 sequence (Q02153 1-619): T1 sequence (Q02153 1-619)
T2 sequence (Q02108 1-690): T1 sequence (Q02108 1-690)
Description: sGC-HEK-cGMP assay (run with SNP incubation). In kind it is cell-based. The following applies: for Emax: 10 μM SNP, 100% = 30 μM BAY 41-2272 with 10 μM SNP, read-out: HEK assay Emax-unconstrained (Percent); for EC50: in the presence of 10 μM SNP; for HEK MEC-10: concentration that would elicit 10% of the Emax in the presence of 10 μM SNP. The method, boiled down: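 HEK293 cells with endogenous sGC were pre-treated 15 min at 37 °C with 0.5 mM IBMX, then exposed to test compound plus sodium nitroprusside for 10 min at 37 °C. Cells were lysed in 0.1 M HCl (4 °C, 30 min), and cGMP was quantified by LC/MS against a standard curve. EC50 values came from concentration-response curves.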

[4] abbreviates: Table 3B, top of concentration-response curve not fitted to 100%.
Where [5] appears, read: top of concentration-response curve not fitted to 100%, Table 3E, read-out: HEK assay EC50-unconstrained.
[6] abbreviates: Table 3C, top of concentration-response curve not fitted to 100%.
The mark [7] stands for this setting: Table 3F, read-out: HEK assay EC50.
[8] abbreviates: top of concentration-response curve not fitted to 100%, Table 3F, read-out: HEK assay EC50-unconstrained.

Read-outs that look alike come from different tables or passages of the source.

One may read the Emax as the greatest response seen or fitted, relative to the assay's reference. What is called EC50 is the concentration at which the effect is half-maximal.

`Oc1nc(-c2cc(-c3ccoc3)n(Cc3ccccc3F)n2)ncc1F` [Compound 87]: the “Enzyme Activity (increase at 30 μM without SNP)” value in assay [1] (Table 5B) is on record as “D (10 or <20 fold increase)”. Moreover, the “Enzyme Activity (increase at 30 μM with SNP)” value in assay [2] (Table 5B) is on record as “E (20 to 30 fold increase)”. Besides, the Emax in assay [3] (setting [4]) was in the range of 40 to 60%. The EC50 in assay [3] (setting [5]) is 0.01 to 0.5 µM.

For the compound `Nc1nc(-c2cc(-c3ccon3)n(Cc3cccc(F)c3F)n2)ncc1NC(=O)c1ccc(F)cc1` [Compound 88], the “Enzyme Activity (increase at 30 μM without SNP)” value in assay [1] (Table 5B) was “F (>30 fold increase)”. Further, the “Enzyme Activity (increase at 30 μM with SNP)” value in assay [2] (Table 5B) is “E (20 to 30 fold increase)”. Moreover, the Emax in assay [3] (setting [4]) was 80 to 100%. Also, in assay [3] (setting [5]), the EC50 lay in the range of 1 to 5 µM.

Turning to `CC1(C)C(=O)Nc2nc(-c3cc(-c4ccon4)n(Cc4ccccc4F)n3)nc(N)c21` [Compound 99, 4-amino-2-(1-(2-fluorobenzyl)-5-(isoxazol-3-yl)-1H-pyrazol-3-yl)-5,5-dimethyl-5H-pyrrolo[2,3-d]pyrimidin-6(7H)-one], the “Enzyme Activity (increase at 30 μM without SNP)” value in assay [1] (Table 5C) is listed as “D (10 or <20 fold increase)”. Besides, the “Enzyme Activity (increase at 30 μM with SNP)” value in assay [2] (Table 5C) is reported as “D (10 or <20 fold increase)”. Also, in assay [3] (setting [6]), the Emax lay within 40 to 60%. Moreover, the “HEK MEC-10” value in assay [3] (Table 3F) was “B (0.01 to <0.1 μM)”. Moreover, the EC50 in assay [3] (setting [7]) is below 20 µM; in assay [3] (setting [8]) it was 0.01 to 0.5 µM.

For `CC1(C)C(=O)Nc2nc(-c3cc(-c4ccon4)n(Cc4ccccc4F)n3)ncc21` [Compound 100], the “Enzyme Activity (increase at 30 μM without SNP)” value in assay [1] (Table 5C) is recorded as “D (10 or <20 fold increase)”. For the same compound, the “Enzyme Activity (increase at 30 μM with SNP)” value in assay [2] (Table 5C) was “F (>30 fold increase)”. Moreover, the Emax in assay [3] (setting [6]) was 60 to 80%. Besides, the “HEK MEC-10” value in assay [3] (Table 3F) is given as “C (0.1 to <1 μM)”. For the same compound, the values for the EC50 in assay [3] (setting [7]) and in assay [3] (setting [8]) were below 20 µM and 0.5 to 1 µM, respectively.

With `Cn1cnc2nc(-c3cc(-c4ccon4)n(Cc4ccccc4F)n3)ncc21` [Compound 109], in assay [1] (Table 5C), the “Enzyme Activity (increase at 30 μM without SNP)” value was “B (2 to <5 fold increase)”. Also, the “Enzyme Activity (increase at 30 μM with SNP)” value in assay [2] (Table 5C) is reported as “B (2 to <5 fold increase)”. Further, the Emax in assay [3] (setting [6]) was in the range of 40 to 60%. In addition, the “HEK MEC-10” value in assay [3] (Table 3F) was “D (1 to <10 μM)”. Moreover, the EC50 in assay [3] (setting [7]) is 40 to 60 µM; in assay [3] (setting [8]), 10 to 50 µM.

Regarding `Fc1ccccc1Cn1nc(-c2ncc3[nH]cnc3n2)cc1-c1ccon1` [Compound 110], the “Enzyme Activity (increase at 30 μM without SNP)” value in assay [1] (Table 5C) is on record as “D (10 or <20 fold increase)”. The “Enzyme Activity (increase at 30 μM with SNP)” value in assay [2] (Table 5C) was “D (10 or <20 fold increase)”. Also, the Emax in assay [3] (setting [6]) fell in the range of 80 to 100%. Also, in assay [3] (Table 3F), the “HEK MEC-10” value is on record as “C (0.1 to <1 μM)”. The EC50 in assay [3] (setting [7]) was below 20 µM; in assay [3] (setting [8]) it was 1 to 5 µM.

Regarding `Cn1[nH]c2nc(-c3cc(-c4ccon4)n(Cc4ccccc4F)n3)ncc2c1=O` [Compound 112], the “Enzyme Activity (increase at 30 μM without SNP)” value in assay [1] (Table 5C) is “A (no increase to <2 fold increase)”. Moreover, the “Enzyme Activity (increase at 30 μM with SNP)” value in assay [2] (Table 5C) is on record as “B (2 to <5 fold increase)”. The Emax in assay [3] (setting [6]) is 60 to 80%. In addition, the “HEK MEC-10” value in assay [3] (Table 3F) is given as “E (10 to 50 μM)”. Besides, the EC50 in assay [3] (setting [7]) was in the range of 60 to 100 µM; in assay [3] (setting [8]), 10 to 50 µM.

Take `Fc1ccccc1Cn1nc(-c2ncc3cn[nH]c3n2)cc1-c1ccon1` [Compound 113]: in assay [1] (Table 5C), the “Enzyme Activity (increase at 30 μM without SNP)” value was “C (5 to <10 fold increase)”. In addition, in assay [2] (Table 5C), the “Enzyme Activity (increase at 30 μM with SNP)” value is recorded as “D (10 or <20 fold increase)”. In addition, the Emax in assay [3] (setting [6]) lay in the range of 20 to 40%. In assay [3] (Table 3F), the “HEK MEC-10” value was “C (0.1 to <1 μM)”. In addition, the figures for the EC50 in assay [3] (setting [7]) and in assay [3] (setting [8]) were 20 to 40 µM and 0.01 to 0.5 µM, respectively.

As for `CC(=O)Nc1n[nH]c2nc(-c3cc(-c4ccon4)n(Cc4ccccc4F)n3)ncc12` [Compound 114], the “Enzyme Activity (increase at 30 μM without SNP)” value in assay [1] (Table 5C) is “D (10 or <20 fold increase)”. The “Enzyme Activity (increase at 30 μM with SNP)” value in assay [2] (Table 5C) is on record as “E (20 to 30 fold increase)”. Moreover, the Emax in assay [3] (setting [6]) lay within 60 to 80%. In assay [3] (Table 3F), the “HEK MEC-10” value was “A (0.001 to <0.01 μM)”. Further, the EC50 was below 20 µM in assay [3] (setting [7]) and 0.01 to 0.5 µM in assay [3] (setting [8]).

Turning to `NC1=NNC2NC(c3cc(-c4ccon4)n(Cc4ccccc4F)n3)=NC=C12` (centres unmarked) [Compound 118], in assay [1] (Table 5C), the “Enzyme Activity (increase at 30 μM without SNP)” value was “C (5 to <10 fold increase)”. Further, the “Enzyme Activity (increase at 30 μM with SNP)” value in assay [2] (Table 5C) was “E (20 to 30 fold increase)”. The Emax in assay [3] (setting [6]) is 80 to 100%. The “HEK MEC-10” value in assay [3] (Table 3F) was “B (0.01 to <0.1 μM)”. Also, the EC50 in assay [3] (setting [7]) was below 20 µM; in assay [3] (setting [8]), 0.5 to 1 µM.
